Structures can show the parent of a compound that is named as a salt. Where two headings read alike, the source gives them in different places. Values belong to the compound of their own block, whether it stands above or below them.
Legend:
[1] = system: Hela cells; test: Pulse-chase labeling with EdU; type: cell-based; settings: 20 μM VdU 16 h, 1 μM PINK 4 h, 10 μM EdU 4 h
Description: To investigate the potential impact of VdU-PINK labeling on subsequent DNA synthesis, a pulse-chase experiment was performed with 5-ethynyl-2′-deoxyuridine (EdU) (FIG. 14, a). Hela cells were grown in cell media containing 20 μM VdU for 16 h, aspirated, treated with 1 μM PINK for 4 h, aspirated and treated with 10 μM EdU for 4 h. After fixation and DNA denaturation, cells were stained with AF488-azide (488 nm laser; emission 495-540 nm), and total cellular DNA was counterstained with Hoechst 33342 (405 nm laser; emission 410-480 nm). The “No VdU” cells were incubated with 1 μM PINK but not VdU. PINK+ and EdU+ “double positive” cells were observed as having co-localized nuclear staining. […] Therefore, VdU and PINK were used to track DNA synthesis and cellular division using live-cell, time-lapsed imaging. For optimal live-cell visualization, cells were incubated with 100 µM VdU for 23 h and subsequently labeled with 1 μM PINK for 4 h prior to imaging, allowing for the recording of full mitotic cycles over 2.5 hours (FIG. 14, b). Live cell images were acquired using a confocal microscope equipped with a stage-top incubator at 37° C. and at 5% CO2.
Pulse-Chase Labeling. In each well of a 24-well plate, one 10 mm diameter cover slide was placed. Hela cells were seeded at 1.2×10^5 cells per mL and allowed to settle overnight (22 h). […]

[2] = Photophysical measurements (quantum yield) of PINK and PINK-VdU-ox; type: physicochemical; settings: excitation 488 nm, Rhodamine 6G standard; PINK in aqueous and aprotic solvents, 6 depending on the solvent used
Description: PINK (4) undergoes a highly fluorogenic and regioselective IEDDA reaction with VdU (5) to give “PINK-VdU-ox” (6) as a single isomer in a 76% isolated yield after 7d at 60° C. (Scheme 1). The slow rate of this non-templated reaction (Kapp=0.01 M^−1 s^−1, FIG. 5) is due to the combination of an unstrained terminal alkene and unactivated tetrazine.^[49] Over the course of the reaction, a ˜100-fold increase in fluorescence was observed (FIG. 3, c). With a quantum yield (φF)<0.2%, PINK (4) is essentially non-fluorescent in both aqueous and aprotic solvents (FIG. 6).
Highly viscous solvents, including glycerol and polyethylene glycol (PEG 200) induced higher fluorescence of 6, likely by restricting bond rotation and thus suppressing formation of a non-emissive, twisted intramolecular charge transfer (TICT) state.^[50]
Photophysical Measurements. Stock solutions (1-10 mM) of investigated compounds were prepared in DMSO and stored at −20° C. DMSO concentrations were less than 1% after dilution into the respective solvent/aqueous buffer. Measurements were collected on a SpectraMax M5 plate reader (Molecular Devices, Sunnyvale, CA, USA) in 1 cm path-length quartz cuvettes. Quantum yields were obtained by excitation at 488 nm using Rhodamine 6G ((=0.94) in EtOH (n=1.3624) as a fluorescent standard.^[1] Quantum yields were calculated using the equation I: […]

[3] = system: MV4-11 and Jurkat; test: Resazurin single toxicity assay, summary over both cell lines; type: cell-based; settings: Homo sapiens, after 24 h and 72h, read-out: IC50 summarised over both cell lines
Description: (§1) Resazurin assays were carried out to test the effectiveness of VdU, VdA and PINK alone in MV4-11 and Jurkat. The resazurin reduction assay is a colorimetric assay which allows to determine a cell's viability based on its metabolic activities.^26 When the cells are alive, the resazurin gets reduced by NADH into its resorufin form by cellular respiration, which is pink and highly fluorescent.^26 When the cells are dead or their metabolisms are impaired, the resazurin remains in its oxidized form, which is blue and has low fluorescence.^26 The cells can then be imaged using a spectrometer to determine how viable they are after each treatment.
Overall, VdU presented itself as a good candidate for the combination therapy with PINK due to its low toxicity in the two leukemia cell lines.
(§2) Resazurin Single toxicity assay. MV4-11 and Jurkat cells were seeded in 96-well plates at a density of 20 000 cells/well, in triplicates. The cells were treated with each nucleoside (VdU/VdA) alone diluted in fresh media in 1:4 serial dilutions (˜0.01% DMSO) at concentrations of 1000-0 μM. The cells were treated with PINK alone diluted in fresh media in 1:2 serial dilutions (˜1% DMSO) at concentration of 100-0 μM. The cells were then incubated for 24 h and 72h. 10 μL of 870 μM resazurin was added per well, and incubated for 2-5 hours. After incubation, the fluorescence intensity at 590 nm (excitation=560 nm) was measured using a SpectraMax M5 plate reader.

[4] = system: MOLM-13 cells; test: Cell counting assay (Trypan Blue); type: cell-based, human; settings: MOLM-13, 5 μM nucleoside, 1 μM PINK
Description: To confirm the cytotoxicity results obtained from the resazurin assays, a cell counting assay was conducted using Trypan Blue. It is an azo dye allows to discriminate between viable cells and dead cells, since dead cells will take in the dye, while viable cells will remain white. 28 From the resazurin assays, and after some optimization based on cell sensitivity to the vinyl-nucleosides, it was determined that […] and 5 μM of vinyl-nucleosides alone and in combination with 1 μM of PINK were two interesting concentrations to explore in Jurkat, MV4-11, and MOLM-13 cells. Cells were incubated with 5 μM or 10 μM of each nucleoside overnight (Day 0), and 1 μM of PINK was added for the combinations and PINK alone 24h post nucleoside incubation (Day 1). The cells were counted every 24h.
Cell Counting Assay. Jurkat, MV4-11 and MOLM-13 cells were seeded in 12-well plates at a density of 500 000 cells/mL, 175 000 cells/mL and 375 000 cells/mL, respectively, in duplicates. The cells were incubated overnight in fresh media containing 10 μM (Jurkat) or 5 μM (MV4-11 and MOLM-13) of each nucleoside (˜0.01% DMSO). 24h post nucleoside addition, 1 μM of PINK (˜0.01% DMSO) were added to the respective wells and incubated for 24 h. The cells were counted using a cell counter (BIO RAD TC20) to determine the percentage of viable cells and the cell concentration. The cells were counted every 24h using Trypan Blue in a 1:1 ratio.

[5] = system: Jurkat cells; test: Resazurin single toxicity assay; type: cell-based; settings: Homo sapiens, compound alone
Description: as §1, §2

[6] = system: MV4-11 cells; test: Resazurin single toxicity assay; type: cell-based; settings: Homo sapiens, compound alone
Description: as §1, §2

[7] = system: Jurkat cells; test: Resazurin combination toxicity assay; type: cell-based; settings: Homo sapiens
Description: (§3) From the single toxicity experiment, it was determined that the optimal subtoxic concentration of PINK to be used for the combination toxicity assays would be 1 μM. To test how effective the vinyl-nucleosides (VdU/VdA) in combination with PINK are at killing the cells compared to the vinyl-nucleosides alone, another resazurin reduction assay was carried out.
(§4) To determine if it is possible to treat the leukemia cells with the vinyl-nucleosides and PINK simultaneously, instead of adding them sequentially, another resazurin reduction assay using the same concentrations of each compound as in the previous combination experiment was carried out, where instead the vinyl-nucleosides and PINK were added on the same day instead of on two consecutive days.
(§5) Resazurin Combination toxicity assays. MV4-11, MOLM-13 and Jurkat cells were seeded in 96-well plates at a density of 20 000 cells/well, 25 000 cells/well and 30 000 cells/well, respectively, in triplicates. For the sequential addition, the cells were first treated with the nucleosides (VdU/VdA) diluted in fresh media in 1:4 serial dilutions (˜0.01% DMSO) at concentrations of 500-0 μM, and incubated overnight. 24h post nucleoside addition, the cells were treated with 1 μM PINK diluted in fresh media (˜1% DMSO), and incubated for 24-72h. The cells were treated with resazurin, incubated and measured, as described above. For the simultaneous addition, the cells were treated with nucleosides and PINK on the same day at the same concentrations as describes above, and incubated for 24-72h.

[8] = system: MV4-11 cells; test: Resazurin combination toxicity assay; type: cell-based; settings: Homo sapiens
Description: as §3, §4, §5

[9] = system: MOLM-13 cells; test: Resazurin combination toxicity assay; type: cell-based, human; settings: variable VdU/VdA alone or with 1 μM PINK added 24 h post nucleoside addition, read-out: IC50 value (48 h) for sequential addition
Description: as §3, §5

[10] = Photophysical properties of AO-495-tet-py before and after reaction with 5-norbornene-2 methanol; type: physicochemical; settings: for φ: Rhodamine 6G standard; for λmax(Fluor.): excitation at 488 nm
Description: The absorbance and fluorescence intensity (excitation at 488 nm) of AO-495-TET-py in different solvents (water, PBS and acetonitrile) was measured in a quartz cuvette (light path 1 cm) using a SpectraMax M5 plate reader (Molecular Devices, Sunnyvale, CA, USA). For AO-495-tet-py, samples for photophysical characterization were prepared directly from stock solution (10 mM in DMSO) by gradient dilution. For reaction of AO-495-tet-py with 5-norbornene-2 methanol, 20 μL AO-495-tet-py stock solution (in DMSO) was mixed with 2 μL 5-norbornene-2 methanol (80× excess) in room temperature for 24 h to ensure full conversion. 3 μL of the reaction mixture was diluted in to the indicated solvent to make a […] solution for following photophysical characterization. Rhodamine 6G in ethanol was used as fluorescence standard (φ=0.94).

[11] = 48 h, variable VdU/VdA alone or with 1 μM PINK added on the same day, read-out: IC50 value (48 h) for simultaneous addition
[12] = variable VdU/VdA alone or with 1 μM PINK added 24 h post nucleoside addition, read-out: IC50 value (48 h) for sequential addition

- quantum yield (φF) [2]: 3.5-19%
SMILES: Cc1cc(-c2cn([C@H]3C[C@H](O)[C@@H](CO)O3)c(=O)[nH]c2=O)c(-c2ccc3cc4ccc(N(C)C)cc4nc3c2)nn1 [PINK-VdU-ox]
- impact of VdU-PINK labeling on subsequent DNA synthesis / cell cycle [1]: did not cause cell cycle arrest

SMILES: C=Cc1cn([C@H]2C[C@H](O)[C@@H](CO)O2)c2ncnc(N)c12 [VdA, 7-vinyl-7-deaza-2′-deoxyadenosine]
- IC50 [3]: ~50 µM
- cell concentration (cell growth) [4]: seem to inhibit cell growth
- IC50 ([5]; 24 h incubation, read-out: IC50 value (24 h)): 68 µM
- IC50 ([5]; 72 h incubation, read-out: IC50 value (72 h)): 46 µM
- IC50 ([6]; MV4-11, 24 h incubation, read-out: IC50 value (24 h)): 32 µM
- IC50 ([6]; MV4-11, 72 h incubation, read-out: IC50 value (72 h)): 58 µM
- IC50 [7, 11]: 72 µM
- IC50 [7, 12]: 46 µM
- IC50 [8, 11]: 37 µM
- IC50 [8, 12]: 25 µM
- IC50 ([9]; Homo sapiens, MOLM-13, MOLM-13): 3 µM
- IC50 ([9]; MOLM-13): 2.6 µM

- λmax(Abs) ([10]; MeCN): 498 nm
- φ ([10]; MeCN): 0.0075
- λmax(Fluor.) ([10]; MeCN): 525 nm
- λmax(Abs) ([10]; PBS): 500 nm
- φ ([10]; PBS): 0.0148
- λmax(Fluor.) ([10]; PBS): 525 nm
- λmax(Abs) ([10]; Water): 500 nm
- φ ([10]; Water): 0.0063
- λmax(Fluor.) ([10]; Water): 525 nm
SMILES: CN(C)c1ccc2cc3ccc(N(C)C)cc3[n+](CCCc3nnc(-c4ccccn4)nn3)c2c1 [AO-495-tet-py, (10-(6-(pyridin-2-yl)-1,2,4,5-tetrazin-3-yl)propyl)-3,6-bis(dimethylamino)acridinium trifluoroacetate)]

— patent US20250127774A1, “COMPOUNDS FOR LABELLING NUCLEIC ACID AND USES THEREOF” (THE ROYAL INSTITUTION FOR THE ADVANCEMENT OF …, priority 2022, published 2025)
